# Assays:
# Sphingosine kinase 2 = target: T1, Sphingosine kinase 2 (Mus musculus, UniProt Q9JIA7); test: Inhibition of mouse recombinant SPHK2 expressed in baculovirus-infected Sf9 cells
# T1 sequence (Q9JIA7 whole entry): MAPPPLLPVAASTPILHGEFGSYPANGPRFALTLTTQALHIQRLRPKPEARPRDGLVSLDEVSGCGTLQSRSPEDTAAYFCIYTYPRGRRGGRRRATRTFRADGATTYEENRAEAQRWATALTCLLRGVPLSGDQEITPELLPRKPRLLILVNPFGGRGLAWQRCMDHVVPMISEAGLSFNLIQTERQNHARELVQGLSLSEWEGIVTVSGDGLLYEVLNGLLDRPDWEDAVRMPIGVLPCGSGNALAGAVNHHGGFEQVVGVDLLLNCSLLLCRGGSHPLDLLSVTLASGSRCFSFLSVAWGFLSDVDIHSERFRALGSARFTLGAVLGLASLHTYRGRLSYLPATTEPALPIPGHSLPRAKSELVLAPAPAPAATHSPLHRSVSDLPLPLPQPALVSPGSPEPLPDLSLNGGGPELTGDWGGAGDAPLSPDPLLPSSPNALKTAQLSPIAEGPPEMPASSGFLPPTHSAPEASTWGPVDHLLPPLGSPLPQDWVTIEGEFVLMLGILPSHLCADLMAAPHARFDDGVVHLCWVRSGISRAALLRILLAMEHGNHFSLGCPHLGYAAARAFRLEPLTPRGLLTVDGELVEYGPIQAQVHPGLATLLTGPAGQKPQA
# Sphingosine kinase 1 [1] = target: T2, Sphingosine kinase 1 (Homo sapiens, UniProt Q9NYA1); test: biochemical
# T2 sequence (Q9NYA1 whole entry): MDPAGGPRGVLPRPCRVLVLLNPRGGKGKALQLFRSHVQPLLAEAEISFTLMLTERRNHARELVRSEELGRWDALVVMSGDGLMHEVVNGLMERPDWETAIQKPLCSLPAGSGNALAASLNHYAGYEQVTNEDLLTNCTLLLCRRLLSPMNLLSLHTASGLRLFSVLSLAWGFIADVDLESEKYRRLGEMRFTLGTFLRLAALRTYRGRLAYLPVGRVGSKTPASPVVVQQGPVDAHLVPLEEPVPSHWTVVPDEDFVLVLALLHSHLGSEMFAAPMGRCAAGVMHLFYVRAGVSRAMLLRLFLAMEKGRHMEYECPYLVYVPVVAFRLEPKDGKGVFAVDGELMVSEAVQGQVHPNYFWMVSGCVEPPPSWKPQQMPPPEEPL
# Description: (§1) Inhibition of human recombinant SPHK1 expressed in baculovirus-infected Sf9 cells
# Sphingosine kinase 1 [2] = target: T2, Sphingosine kinase 1
# Description: as §1
# [3] = target: Sphingosine kinase 2 (Mus musculus) (UniProt Q9JIA7); test: Inhibition of SPHK2
Ki (Sphingosine kinase 2),Ki (Sphingosine kinase 1 [1]),Ki (Sphingosine kinase 1 [2]),Ki [3],SMILES
> 20 µM,800 nM,,,N=C(N)C1(C(=O)Nc2ccc(CCCCCCCCOCC3CCCCC3)cc2)CC1
18 µM,170 nM,,,N=C(N)C1(NC(=O)c2ccc(CCCCCCCOCC3CCCC3)cc2)CC1
7 µM,240 nM,,,N=C(N)C1(C(=O)Nc2ccc(CCCCCCCOCC3CCCCC3)cc2)CC1
33 µM,,,,Oc1ccc(Nc2nc(-c3ccc(Cl)cc3)cs2)cc1
8 µM,130 nM,,,N=C(N)[C@@H]1CCCN1C(=O)CCCCCCCCCCOCC1CCCCC1
26 µM,,110 nM,,N=C(N)C1(C(=O)NCCCCCCCCCCOCC2CCCCC2)CC1
31 µM,,,31 µM,CCCCCCCCc1ccc(NC(=O)[C@@H](N)CCO)cc1
12 µM,95 nM,,,N=C(N)C1(NC(=O)CCCCCCCCCCOCC2CCCCC2)CC1
15 µM,130 nM,,,N=C(N)C1(NC(=O)c2ccc(CCCCCCCOCC3CCCCC3)cc2)CC1
3 µM,,75 nM,,N=C(N)[C@@H]1CCCN1C(=O)c1ccc(CCCCCCCOCC2CCCCC2)cc1
> 100 µM,5400 nM,,,CCCCCCCCCCCCCCCCNC(=O)C1(C(=N)N)CC1
12 µM,390 nM,,,N=C(N)C1(C(=O)Nc2ccc(CCCCCCOCC3CCCCC3)cc2)CC1
40 µM,1300 nM,,,CCCCOCCCCCCCc1ccc(C(=O)NC2(C(=N)N)CC2)cc1
5.3 µM,99 nM,,,N=C(N)[C@@H]1CCCN1C(=O)c1ccc(CCCCCCCCCC2CCCCC2)cc1
38 µM,5000 nM,,,N=C(N)C1(C(=O)Nc2ccc(CCCCCCCOCc3ccccc3)cc2)CC1
4.2 µM,,47 nM,,N=C(N)[C@@H]1CCCN1C(=O)c1ccc(-c2nc(-c3cccc(CCC4CCCCC4)c3)co2)cc1
10 µM,4000 nM,,,CCCCCCCCCCCOc1ccc(C(=O)NC2(C(=N)N)CC2)cc1
5 µM,1600 nM,,,CCCCCCCCCCCCc1ccc(C(=O)NC2(C(=N)N)CCC2)cc1
4.6 µM,1500 nM,,,N=C(N)C1(C(=O)Nc2ccc(CCCCCCCOCC34CC5CC(CC(C5)C3)C4)cc2)CC1
6 µM,110 nM,,,N=C(N)[C@@H]1CCCN1C(=O)c1ccc(-c2nc(-c3cccc(CCC4CCCCC4)c3)cs2)cc1
> 100 µM,9000 nM,,,CCCCCCCCCCCCCCCCCCNC(=O)C1(C(=N)N)CC1
25 µM,450 nM,,,N=C(N)C1(C(=O)NCCCCCCCCCCOCC2CCCC2)CC1
> 10 µM,500 nM,,,N=C(N)C1(C(=O)Nc2ccc(CCCCCCCCCc3ccccc3)cc2)CC1
> 10 µM,1300 nM,,,N=C(N)C1(C(=O)Nc2ccc(CCCCCCCCc3ccccc3)cc2)CC1
20 µM,2000 nM,,,N=C(N)[C@@H]1CCCN1C(=O)c1ccc(-c2nc(-c3cccc(CCC4CCCCC4)c3)c[nH]2)cc1
7.5 µM,6000 nM,,,CCCCCCCCCCCCCCNC(=O)C1(C(=N)N)CC1

# — ChEMBL document CHEMBL1772987, “Development of amidine-based sphingosine kinase 1 nanomolar inhibitors and reduction of sphingosine 1-phosphate in human leukemia cells” (J Med Chem, 2011)
